According to patent US9834521B2, “Choline kinase inhibitors” (ARIAD Pharmaceuticals, Inc., priority 2013, dated 2017):

Each molecule was assayed against T1, truncated form of human Choline kinase α1 that includes residues 75-457 (Homo sapiens, UniProt P35790) (assay: Kinase Assay, coupled (ATP regeneration) LDH/PK assay, NADH absorbance). Conditions: not given.
T1 construct: made in house
Type: biochemical
Procedure: Absorbance of NADH (340 nm) was measured over 30 min using a SpectraMax M5 (Molecular Devices). Initial reaction velocity (ΔA340/Δt) was calculated and plotted as a function of inhibitor concentration in a 2-fold dilution series. IC50 values were obtained by fitting the relative velocities to a dose-response model.

T1 sequence (P35790 75-457): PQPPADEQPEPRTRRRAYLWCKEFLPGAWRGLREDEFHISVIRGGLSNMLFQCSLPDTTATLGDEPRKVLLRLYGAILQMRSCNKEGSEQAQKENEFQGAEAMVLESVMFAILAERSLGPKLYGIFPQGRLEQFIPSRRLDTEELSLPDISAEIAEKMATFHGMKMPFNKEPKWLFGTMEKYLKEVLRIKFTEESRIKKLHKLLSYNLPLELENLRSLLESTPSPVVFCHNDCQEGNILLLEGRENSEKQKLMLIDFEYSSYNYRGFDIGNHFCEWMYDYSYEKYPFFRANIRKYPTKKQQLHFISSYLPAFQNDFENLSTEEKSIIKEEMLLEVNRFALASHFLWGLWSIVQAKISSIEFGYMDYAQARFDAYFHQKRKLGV

Structure (SMILES) | IC50
CN1CCCN(Cc2ccc(-c3ccc(C(=O)N4CCC(=O)CC4)cc3)c(C#N)c2)CC1 [Example 31, 4-((4-methyl-1,4-diazepan-1-yl)methyl)-4′-(4-oxopiperidine-1-carbonyl)-[1,1′-biphenyl]-2-carbonitrile] | < 2000 nM
CN1CCCN(Cc2ccc(-c3ccc(C(=O)N4CCCCC4)cc3)c(C#N)c2)CC1 [Example 34, 4-((4-methyl-1,4-diazepan-1-yl)methyl)-4′-(piperidine-1-carbonyl)-[1,1′-biphenyl]-2-carbonitrile] | < 500 nM

Same assay, conditions: Examples designated with an asterisk (*): version 1 of the Kinase Assay, 200 nM enzyme; read-out: IC50

Structure (SMILES) | IC50
CN1CCCN(Cc2ccc(N3CCCC3=O)cc2)CC1 [Example 144, 1-(4-((4-methyl-1,4-diazepan-1-yl)methyl)phenyl)pyrrolidin-2-one] | < 50000 nM
C=CCN1CCN(Cc2ccc(CN3CCCN(C)CC3)cc2)CC1 [Example 146, 1-(4-((4-allylpiperazin-1-yl)methyl)benzyl)-4-methyl-1,4-diazepane] | < 50000 nM
CN1CCC(N2CCN(Cc3ccc(CN4CCCN(C)CC4)cc3)CC2)CC1 [Example 149, 1-methyl-4-(4-((4-(1-methylpiperidin-4-yl)piperazin-1-yl)methyl)benzyl)-1,4-diazepane] | < 50000 nM
CN1CCCN(Cc2ccc(-c3ccccn3)cc2)CC1 [Example 141, 1-methyl-4-(4-(pyridin-2-yl)benzyl)-1,4-diazepane] | < 50000 nM
CN1CCCN(Cc2ccc(CN3CC[C@@H](O)C3)cc2)CC1 [Example 150, (R)-1-(4-((4-methyl-1,4-diazepan-1-yl)methyl)benzyl)pyrrolidin-3-ol] | < 50000 nM
CN1CCCN(Cc2ccc(CCCCc3ccc(CN4CCCN(C)CC4)cc3)cc2)CC1 [Example 154, 1,4-bis(4-((4-methyl-1,4-diazepan-1-yl)methyl)phenyl)butane] | < 50000 nM
COc1ccc(NCc2ccc(CN3CCCN(C)CC3)cc2)cc1 [Example 151, 4-methoxy-N-(4-((4-methyl-1,4-diazepan-1-yl)methyl)benzyl)aniline] | < 50000 nM

Same assay, conditions: Examples not designated with an asterisk; footnote prints version 1 of the Kinase Assay; read-out: IC50

Structure (SMILES) | IC50
CC(=O)N1CCN(C(=O)c2ccc(-c3ccc(CN4CCCN(C)CC4)cc3)cc2)CC1 [Example 38, 1-(4-(4′-((4-methyl-1,4-diazepan-1-yl)methyl)-[1,1′-biphenyl]-4-carbonyl)piperazin-1-yl)ethanone] | < 50000 nM
Cc1cc(CN2CCCN(C)CC2)ccc1-c1ccc(CN2CCCN(C)CC2)cc1 [Example 49, 4,4′-((2-methyl-[1,1′-biphenyl]-4,4′-diyl)bis(methylene))bis(1-methyl-1,4-diazepane)] | < 500 nM
CN1CCCN(Cc2ccc(-c3ccc(N)nc3)c(C#N)c2)CC1 [Example 111, 2-(6-aminopyridin-3-yl)-5-((4-methyl-1,4-diazepan-1-yl)methyl)benzonitrile] | < 500 nM
CN1CCCN(Cc2ccc(-c3ccc(CCC(=O)O)cc3)cc2)CC1 [Example 132, 3-(4′-((4-methyl-1,4-diazepan-1-yl)methyl)-[1,1′-biphenyl]-4-yl)propanoic acid] | < 50000 nM
CN1CCCN(Cc2ccc(-c3ccc(C(=O)N4CCCN(C)CC4)cc3N(C)C)c(C#N)c2)CC1 [Example 62, 2′-(dimethylamino)-4-((4-methyl-1,4-diazepan-1-yl)methyl)-4′-(4-methyl-1,4-diazepane-1-carbonyl)-[1,1′-biphenyl]-2-carbonitrile] | < 500 nM
COC(=O)c1ccc(-c2ccc(CN3CCCN(C)CC3)cc2C#N)c(Br)c1 [Example 156, methyl 2-bromo-2′-cyano-4′-((4-methyl-1,4-diazepan-1-yl)methyl)-[1,1′-biphenyl]-4-carboxylate] | < 2000 nM
CN1CCCN(Cc2ccc(-c3ccc(C(=O)N4CCCN(C)CC4)cc3-c3ccc([N+](=O)[O-])cc3)c(C#N)c2)CC1 [Example 73, 4-((4-methyl-1,4-diazepan-1-yl)methyl)-4′-(4-methyl-1,4-diazepane-1-carbonyl)-4″-nitro-[1,1′:2′,1″-terphenyl]-2-carbonitrile] | < 500 nM
CN1CCCN(Cc2ccc(-c3ccc(Oc4ccccc4N)cc3)c(C#N)c2)CC1 [Example 115, 4′-(2-aminophenoxy)-4-((4-methyl-1,4-diazepan-1-yl)methyl)-[1,1′-biphenyl]-2-carbonitrile] | < 2000 nM
CN1CCCN(Cc2ccc(-c3ccc(C(=O)N4CCCN(C)CC4)cc3-c3ccc(S(C)(=O)=O)cc3)c(C#N)c2)CC1 [Example 75, 4-((4-methyl-1,4-diazepan-1-yl)methyl)-4′-(4-methyl-1,4-diazepane-1-carbonyl)-4″-(methylsulfonyl)-[1,1′1:2′,1″-terphenyl]-2-carbonitrile] | < 500 nM
CN1CCCN(Cc2ccc(-c3ccc(/C(N)=N/O)cc3)c(C#N)c2)CC1 [Example 99, (E)-2′-cyano-N′-hydroxy-4′-((4-methyl-1,4-diazepan-1-yl)methyl)-[1,1′-biphenyl]-4-carboximidamide] | < 500 nM
CC(=O)Nc1cc(-c2ccc(CN3CCCN(C)CC3)cc2C#N)ccc1[N+](=O)[O-] [Example 110, N-(2′-cyano-4′-((4-methyl-1,4-diazepan-1-yl)methyl)-4-nitro-[1,1′-biphenyl]-3-yl)acetamide] | < 500 nM
CN1CCCN(Cc2ccc(-c3ccc(C(N)=O)cc3)c(C#N)c2)CC1 [Example 28, 2′-cyano-4′-((4-methyl-1,4-diazepan-1-yl)methyl)-[1,1′-biphenyl]-4-carboxamide] | < 500 nM
CC(=O)NS(=O)(=O)c1ccc(-c2ccc(CN3CCCN(C)CC3)cc2C#N)cc1 [Example 109, N-((2′-cyano-4′-((4-methyl-1,4-diazepan-1-yl)methyl)-[1,1′-biphenyl]-4-yl)sulfonyl)acetamide] | < 500 nM
CN1CCCN(Cc2ccc(-c3ccc(C(=O)N4CCCN(C)CC4)cc3-c3ccc(C#N)cc3)c(C#N)c2)CC1 [Example 68, 4-((4-methyl-1,4-diazepan-1-yl)methyl)-4′-(4-methyl-1,4-diazepane-1-carbonyl)-[1:1′:2′,1″-terphenyl]-2,4″-dicarbonitrile] | < 500 nM
CN1CCCN(Cc2ccc(-c3ccccc3C(N)=O)cc2)CC1 [Example 133, 4′-((4-methyl-1,4-diazepan-1-yl)methyl)-[1,1′-biphenyl]-2-carboxamide] | < 50000 nM
CN1CCCN(Cc2ccc(-c3ccc(C(=O)N4CCCN(C)CC4)cc3-c3ccc(CC#N)cc3)c(C#N)c2)CC1 [Example 67, 4″-(cyanomethyl)-4-((4-methyl-1,4-diazepan-1-yl)methyl)-4′-(4-methyl-1,4-diazepane-1-carbonyl)-[1,1′:2′,1″-terphenyl]-2-carbonitrile] | < 500 nM
CN1CCCN(Cc2ccc(-c3ccc(CO)cc3)c(C#N)c2)CC1 [Example 108, 4′-(hydroxymethyl)-4-((4-methyl-1,4-diazepan-1-yl)methyl)-[1,1′-biphenyl]-2-carbonitrile] | < 500 nM
CN1CCCN(Cc2ccc(-c3cn[nH]c3)c(C#N)c2)CC1 [Example 112, 5-((4-methyl-1,4-diazepan-1-yl)methyl)-2-(1H-pyrazol-4-yl)benzonitrile] | < 500 nM
CN1CCCN(Cc2ccc(-c3ccc(N)c([N+](=O)[O-])c3)c(C#N)c2)CC1 [Example 101, 4′-amino-4-((4-methyl-1,4-diazepan-1-yl)methyl)-3′-nitro-[1,1′-biphenyl]-2-carbonitrile] | < 500 nM
COc1cccc(-c2cc(C(=O)N3CCCN(C)CC3)ccc2-c2ccc(CN3CCCN(C)CC3)cc2C#N)c1 [Example 74, 3″-methoxy-4-((4-methyl-1,4-diazepan-1-yl)methyl)-4′-(4-methyl-1,4-diazepane-1-carbonyl)[1,1′:2′,1″-terphenyl]-2-carbonitrile] | < 500 nM
CN1CCCN(Cc2ccc(-c3ccc(C(=O)N4CCC(O)CC4)cc3)c(C#N)c2)CC1 [Example 19, 4′-(4-hydroxypiperidine-1-carbonyl)-4-((4-methyl-1,4-diazepan-1-yl)methyl)-[1,1′-biphenyl]-2-carbonitrile] | < 500 nM
CN1CCCN(Cc2ccc(-c3ccc(C(=O)N4CCC(O)C4)cc3)c(C#N)c2)CC1 (centres unmarked) [Example 25, 4′-(3-hydroxypyrrolidine-1-carbonyl)-4-((4-methyl-1,4-diazepan-1-yl)methyl)-[1,1′-biphenyl]-2-carbonitrile] | < 500 nM
CN1CCCN(Cc2ccc(-c3ccc(O)cc3)c(C#N)c2)CC1 [Example 107, 4′-hydroxy-4-((4-methyl-1,4-diazepan-1-yl)methyl)-[1,1′-biphenyl]-2-carbonitrile] | < 500 nM
CN1CCCN(Cc2ccc(-c3ccc(C(=O)N(C)CCO)cc3)c(C#N)c2)CC1 [Example 17, 2′-cyano-N-(2-hydroxyethyl)-N-methyl-4′-((4-methyl-1,4-diazepan-1-yl)methyl)-[1,1′-biphenyl]-4-carboxamide] | < 500 nM
Cc1cc(-c2ccc(CN3CCCN(C)CC3)cc2C#N)cnc1N [Example 118, 2-(6-amino-5-methylpyridin-3-yl)-5-((4-methyl-1,4-diazepan-1-yl)methyl)benzonitrile] | < 2000 nM
CN1CCCN(Cc2ccc(-c3ccc(CC(N)C(=O)O)cc3)c(C#N)c2)CC1 (centres unmarked) [Example 100, 2-amino-3-(2′-cyano-4′-((4-methyl-1,4-diazepan-1-yl)methyl)-[1,1′-biphenyl]-4-yl)propanoic acid] | < 500 nM
CN1CCCN(Cc2ccc(-c3ccc(C(F)(F)F)cc3CO)cc2)CC1 [Example 131, (4′-((4-methyl-1,4-diazepan-1-yl)methyl)-4-(trifluoromethyl)-[1,1′-biphenyl]-2-yl)methanol] | < 50000 nM
CCOC(=O)Cc1ccc(-c2ccc(CN3CCCN(C)CC3)cc2)cc1 [Example 130, ethyl 2-(4′-((4-methyl-1,4-diazepan-1-yl)methyl)-[1,1′-biphenyl]-4-yl)acetate] | < 50000 nM
CNC(=O)NCc1ccc(-c2ccc(CN3CCCN(C)CC3)cc2C#N)cc1 [Example 47, 1-((2′-cyano-4′-((4-methyl-1,4-diazepan-1-yl)methyl)-[1,1′-biphenyl]-4-yl)methyl)-3-methylurea] | < 500 nM
